Reference: a melting point compilation (Tetko et al.; mined from patent text by program, amines drawn as free bases though some values may be those of a salt)

Row | SMILES | melting point [°C]
1 | CN(C)C(=O)Nc1ccc2c(c1)C(c1ccccc1F)=NCC(=O)N2C | 97
2 | CC1(C)CNC(=S)NC1 | 225 to 228
3 | N#CCOc1cccc(COc2ccc(OCc3ccc4ccccc4n3)cc2)c1 | 110 to 114
4 | CCCN1CCC(c2n[nH]c3cc(F)ccc23)CC1 | 175 to 177
5 | CN1C(=O)CCC2(C)c3ccc(-c4cccc(F)c4)cc3CCC12 (single isomer, unassigned; (+)) | 116 to 120
6 | Cc1c(NC(=O)c2ccc(-c3ccc(F)cc3)cc2)ccc2cc(CN3CCC(CC(N)=O)CC3)cnc12 | 258 to 260
7 | O=C1CC(Cc2ccc(F)cc2)CN1 (stereo not drawn) | 88.5 to 90
8 | Nc1ccc(-c2noc(-c3cnn4c(C(F)(F)F)cc(-c5ccc(Cl)cc5)nc34)n2)cn1 | 253
9 | NC(c1ncn(N)n1)C1CCN(CC2COc3ccccc3O2)CC1 (stereo not drawn) | 157 to 158
10 | O=C1c2ccccc2C(OCC2CO2)N1c1cccc(Cl)c1 (stereo not drawn) | 170
11 | Cc1cccc(S(=O)(=O)N2Cc3ccccc3C2)c1 | 175 to 177
12 | CCCCCCCCCCOc1cc(OCCCCCCCCCC)cc(C(=O)N(CC(=O)O)CC(=O)O)c1 | 81 to 84
13 | C=CCCOc1cc2c(c(Cl)c1Cl)C(=O)C(C)(C1CCCC1)C2 (stereo not drawn) | 63 to 65
14 | NNP(=S)(Oc1ccccc1)Oc1ccccc1 | 59 to 61
15 | CC1(C)OC(=O)c2ccc(C(c3c(F)cc([N+](=O)[O-])cc3F)n3cncn3)cc21 (stereo not drawn) | 163 to 164
16 | COC(=O)[C@H](CO)NC(=O)c1ncn2c1CN(C)C(=O)c1c(Cl)cccc1-2 | 178 to 180
17 | CC(C)Oc1cc(C(C)C)c2c(c1)S(=O)(=O)N(c1c(F)c(F)nc(F)c1F)C2=O | 130

More lines, now with the values ahead:

Row | melting point [°C] | SMILES
18 | 78 | COc1ccc(S(=O)(=O)C(Cc2cccnc2)(CC(C)C)C(=O)NO)cc1 (stereo not drawn)
19 | 90 to 93 | CC1(C)CC(=O)C2(CCC(=O)O)CC1C2
20 | 308 to 309 | Cc1nnc(-c2cc3cccc(NS(=O)(=O)c4cccs4)c3[nH]2)s1
21 | 133 to 135 | COC1C(O)C(CO)OC1n1cnc2c(N)nc(N)nc21 (stereo not drawn)
22 | 51 to 52.5 | COC(=O)COCCOc1ccc(N)cc1
23 | 200 | Cc1c(Cl)ccc2c1[nH]c1c(C(=O)NO)cccc12
24 | 89 to 92 | C=CCOc1ccc(-c2ccc(C(=O)OCC)cc2)cc1
25 | 139 to 141 | COC1COc2cc(NS(C)(=O)=O)c(Oc3ccccc3)cc2C1=O (stereo not drawn)
26 | 121 to 124 | O=C(O)CN(C(=O)CCc1nc2c(F)c(F)cc(F)c2s1)c1ccccc1
27 | 209 to 210 | COC(=O)c1sc(C)c(C#N)c1N
28 | 134 | COC(=O)C1(C)Oc2ccc(Cl)cc2C(C)(c2ccccc2)O1 (stereo not drawn)
29 | > 280 | O=C(NCc1cc(Br)cc2[nH]c(=O)c(=O)[nH]c12)C(O)c1ccccc1 (stereo not drawn)
30 | 180 to 183 | CC(C(=O)O)c1ccc2c(c1)CC(C)(C)C2 (stereo not drawn)
31 | 84 to 86 | O=C(CNC(=O)c1ccc(F)c([N+](=O)[O-])c1)OCc1ccccc1
32 | 96 to 102 | CC(C)=CCNc1ncnc2nc(NCCN)[nH]c12
33 | 59.5 to 61 | CCOC(=O)C(CCC#N)(C(=O)OCC)c1ccc([N+](=O)[O-])cn1
34 | 180 | CCOC(=O)Cc1ccc(N[C@@H](CCC(N)=O)C(=O)O)cc1
35 | 99 to 101 | COC(=O)NC1CCc2ccc(Cl)cc2C1 (stereo not drawn)
36 | 159 | CCOC(=O)C1=C(N)NC(c2ccccc2)=CC1c1ccccc1 (stereo not drawn)
37 | 53 to 55 | CCOC(=O)CCCOc1ccc(C(C)=O)cc1OC
38 | 326 to 330 | O=C(O)c1cc2[nH]c3c(O)cccc3c(=O)n2n1
39 | 51 to 52 | CCOC(=O)c1cc2c(C)ccc3c2n1CCC3
40 | 203 | CCCCCC(=O)Nc1nnc(C)s1
41 | 82 to 83 | CCN(CC)S(=O)(=O)c1cc(Cl)c(Cl)c(Cl)c1SCCl
42 | 108 to 109 | COC(=O)c1ccc(S(=O)(=O)N2CC[C@H](O)C2)n1C
43 | 114 to 115 | COc1cn(C(C)=O)c2ccc(F)c(Cl)c12
